From PubChem BioAssay (NCI)
Values joined by “and” are separate entries in the source; they are usually repeats but may differ in a detail not shown here. Equal entries are not always repeated.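 Assay format: 96-well plates, 48-hour exposure. GI50 marks 50% less growth. Definition used: TGI = concentration required for complete inhibition of growth.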

How the values were obtained:
Experiment in all cases: DTP human tumour cell line panel, 48 h
HCT-15 colon = system: HCT-15 colon
UO-31 renal = system: UO-31 renal
A549 NSCLC = system: A549 NSCLC
SNB-75 CNS = system: SNB-75 CNS
OVCAR-3 ovarian = system: OVCAR-3 ovarian
RXF 393 renal = system: RXF 393 renal
SNB-19 CNS = system: SNB-19 CNS
SR leukemia = system: SR leukemia
CAKI-1 renal = system: CAKI-1 renal
CCRF-CEM leukemia = system: CCRF-CEM leukemia

Row | SMILES | TGI (HCT-15 colon) | TGI (UO-31 renal) | TGI (A549 NSCLC) | TGI (SNB-75 CNS) [µM] | TGI (OVCAR-3 ovarian) | TGI (RXF 393 renal) | TGI (SNB-19 CNS) [µM] | TGI (SR leukemia) | TGI (CAKI-1 renal) [µM] | GI50 (HCT-15 colon) [µM] | GI50 (UO-31 renal) [µM] | GI50 (A549 NSCLC) [µM] | GI50 (SNB-75 CNS) [µM] | GI50 (OVCAR-3 ovarian) [µM] | GI50 (RXF 393 renal) [µM] | GI50 (SNB-19 CNS) [µM] | GI50 (SR leukemia) [µM] | GI50 (CCRF-CEM leukemia) [µM] | TGI (CCRF-CEM leukemia) [µM] | GI50 (CAKI-1 renal) [µM]
1 | O=C(O)[C@H](c1ccccc1)[C@@H](C(=O)O)c1ccccc1 | > 100 µM | > 100 µM | > 100 µM | > 100 | > 100 µM | > 100 µM | > 100 | > 100 µM | > 100 | – | – | – | – | – | – | – | – | – | – | –
2 | CC(C)(Oc1ccc(/C=C/C(=O)c2ccc(Cl)cc2)cc1)C(=O)Nc1c(Cl)cccc1Cl | 29.3 µM | 54.2 µM | > 100 µM | 97.5 | 44.8 µM | 36.9 µM | > 100 | > 100 µM | 48.9 | – | – | – | – | – | – | – | – | – | – | –
3 | Nc1ccc(/C=C/C(=O)NCc2cc3cc(-c4ccc(C(=O)N5CCC(F)(F)CC5)cc4)cc(-c4ccc(F)cc4)c3o2)cn1 | > 100 µM | > 100 µM | > 100 µM | > 100 | > 100 µM | > 100 µM | > 100 | > 100 µM | – | 0.679 | > 47.6 | > 100 | > 100 | > 39.1 | 37.8 | 3.96 | 12.9 | 0.083 | > 100 | –
4 | C=C(C)C1C/C=C(/C)CCCC2(CCC3=C(CC(C(=C)C)C/C=C(/C)CCC3)O2)C(=O)C1 (centres undefined) | > 100 µM | > 100 µM | > 100 µM | > 100 | – | > 100 µM | > 100 | > 100 µM | – | – | – | – | – | – | – | – | – | – | > 100 | –
5 | CCOC(=O)C1SC(=Nc2ccc(Cl)cc2)N=C1C (centres undefined) | 30 µM | 33.7 µM | 38.1 µM | 44.7 | 47.8 µM | 36.3 µM | 35 | […] | – | – | – | – | – | – | – | – | – | – | – | –
6 | COc1ccc(C(=O)NCCN(C)C)c2nc3ccccc3nc12 | 24.4 µM | > 52 µM | > 100 µM | 78 | > 29.3 µM | 25.4 µM | > 53 | 23.3 µM | > 36.2 | – | – | – | – | – | – | – | – | – | – | –
7 | O=C(N/N=C/c1ccccc1O)c1ccccc1 | > 100 µM | 11.7 µM | > 100 µM | > 100 | > 100 µM | 50.9 µM | > 100 | 28.4 µM | – | 0.893 | 1.53 | 3.9 | 3.5 | 0.669 | 2.68 | 6.22 | 1.79 | 0.35 | 8.3 | –
8 | O=C(N/N=C/c1cccc(F)c1)c1ccncc1 | > 100 µM | – | > 100 µM | > 100 | – | > 100 µM | > 100 | > 100 µM | – | – | – | – | – | – | – | – | – | – | > 100 | –
9 | c1ccc2[nH]c(-c3ccc(Nc4nc(N5CCCCC5)nc(N5CCOCC5)n4)cc3)nc2c1 | 4.38 µM | 5.14 µM | 13.2 µM | 16.9 | 6.19 µM | 3.28 µM | 81.9 | 5.73 µM | – | 1.88 | 2 | 3.27 | 2.1 | 2.4 | 0.808 | 3.73 | 0.73 | 3.25 | > 100 | –
10 | CC(C)(C)c1cc(C=C(C#N)C#N)cc(C(C)(C)C)c1O | 14.1 µM and 19.9 µM | 0.891 µM and 3.7 µM | 24.3 µM and 71.4 µM | – | 29.2 µM and 3.85 µM | 14.3 µM and 10.5 µM | 115 | 12.6 µM and 11 µM | – | – | – | – | 0.194 | 0.456 | 0.482 | 0.271 | 0.318 | 0.609 | – | –
11 | CC(=O)N1CCC2(c3ccccc3N(C(C)=O)C2c2ccc(O)cc2)C1C(=O)O (centres undefined) | – | > 100 µM | > 100 µM | > 100 | > 100 µM | > 100 µM | > 100 | > 100 µM | – | – | – | – | – | – | – | – | – | – | > 100 | –
12 | CSC1=Nc2ccccc2N=C(c2ccc(Cl)cc2)C1 | > 100 µM | > 100 µM | > 100 µM | – | > 100 µM | 79.2 µM | > 100 | > 100 µM | > 100 | – | – | – | – | – | – | – | – | – | > 100 | –
13 | C=C1C(=O)O[C@H]2[C@H]1CC/C(C=Nc1c(N)cc(C(F)(F)F)cc1Br)=C\CC[C@@]1(C)O[C@@H]21 | 4.24 µM | 2.52 µM | 5.11 µM | 3.67 | 2.65 µM | 3.11 µM | 13.2 | 6.73 µM | – | 1.55 | 1.26 | 2.03 | 1.27 | 1.29 | 1.59 | 3.46 | 1.08 | 0.33 | 11.2 | –
14 | N#Cc1ccc(NC(=O)C(CC(=O)OCc2ccccc2)NC(=O)OCc2ccccc2)cc1 (centres undefined) | > 100 µM | > 100 µM | > 100 µM | > 100 | – | > 100 µM | > 100 | > 100 µM | > 100 | > 100 | > 100 | > 100 | > 100 | – | > 100 | > 100 | > 100 | > 100 | > 100 | > 100
15 | O=C(O)c1ccccc1/C=N/N=C1c2ccccc2-c2ccccc21 | > 100 µM | > 100 µM | > 100 µM | – | 36 µM | 75.8 µM | > 100 | 95.5 µM | > 100 | – | – | – | – | – | – | – | – | – | 78.7 | –
